Results published in patent US20180201594A1, “Compound pac-1 or salt thereof and pharmaceutical composition comprising same” (priority 2015, published 2018).
≈ marks a conversion by molar mass, not a printed value. Marks after values point to notes of the source that are not given here.

What was measured:
NF-κB = NF-κB protein expression in HGC-27 cells (immunofluorescence); format: cell-based; settings: n = 6
Procedure: (§1) The sterilized cell transfer membrane was taken and placed into a 24-well plate, which was seeded with 1 mL (1×10^5 cells/mL) cell suspension, and cultured for 24 h. Drug-containing medium was added, The negative control groups and administration groups were set, with the experimental groups intervened for 24-48 h. The plate was washed with PBS, and fixed with 4% paraformaldehyde for 15 min. It was treated with 0.1% TritonX-100, and washed with PBS, blocked with 1:10 diluted normal serum blocking solution for 15 min. The plate was added 1:100 diluted primary antibody, placed at 4° C. overnight. The plate was washed with PBS, to which 1:100 diluted secondary antibodies was added and incubated at room temperature for 30 min. The plate was washed with PBS, to which 1:100 diluted SABC-FITC was added, and re-incubated at room temperature for additional 30 min. The unbound FITC was washed with PBS. We observed and taken pictures under fluorescence microscope, and analyzed the fluorescence intensity by Bioflux Montage software. 6 fields were selected randomly under microscope for each group and the integral optical density value of cells was calculated.

HUVECs = assay: HUVEC viability (MTT method); format: cell-based; settings: Homo sapiens, 48 h
Procedure: Test Methods: The effect of ZYS-1 on the viability of HUVECs was determined by MTT method. The HUVECs in logarithmic growth phase were taken and digested with 0.25% trypsin, centrifuged and resuspended in ECM complete medium to formulate into […] single cell suspension. The cells were seeded in 96-well culture plates at a density of 1×10^4 cells/well, with a volume of 100 μL per well. They were placed and cultured in the incubator with 37®, 5% CO2. After culturing 24 h, […] different concentrations of ZYS-1 solution were added to obtain the final concentrations of drugs at 0.1, 0.5, 1, 5, 10, 50 and 100 μM. Meanwhile, the positive control group was set as etoposide at a final concentration of 10 μM, and the negative control was an equal amount of 0.1% DMSO solution. Each concentration of the experimental groups and the control groups all were set five replicates, with 100 μL of drugs per well. The blank control group is additionally set as 200 μL complete medium. The cells were placed and cultured in the incubator with 37 m, 5% CO2. After culturing for 48 h, 20 μL MTT solution (5 mg/mL) was added to each well, which was continued to be cultured for another 4 h. […] The light absorbance value of each well was measured by enzyme-linked immunosorbent assay. The measured wavelength was 570 nm and the result was recorded. […]

HT-1080 cells = assay: Three-dimensional migration (Transwell assay), HT-1080; format: cell-based, human; settings: for Cell number (transmembrane cells): 24 h, n = 9
Procedure: Starved cells were digested and collected, which were suspended in serum-free medium. The cell intensity was adjusted into 3×10^5 s cells/mL. 100 μL of the cell suspension was added into the upper chamber and 700 μL of medium with 10% serum to the lower chamber per well. According to the experimental design, 50 μL serum-free medium was added per well for the control group, 50 μL of drug-containing serum-free medium was added for the administration groups. They were continued to be cultured in the incubator for another 24 h. The upper chamber was taken, with methanol fixation for 30 min, dyed with Giemsa stain for 30 min, rinsed with clean water twice. The cells on the bottom membrane surface of the upper chamber were carefully wiped off with a wet cotton swab, dried in the air. With the bottom up, they were transferred onto glass slide and sealed with neutral gum. Under the microscope, nine random fields were taken and the transmembrane cells therein were counted. The average values were statistically calculated.

VEGF = VEGF protein expression in HGC-27 cells (immunofluorescence); format: cell-based; settings: n = 6
Procedure: as §1

[1] = tested on: HGC-27, K562/A02, A549, HT-1080 cells; assay: Tumor cell proliferation (MTT or CCK-8); format: cell-based, human; settings: 48 h, FIG. 5-8
Text: Experimental cells: gastric cancer cell line HGC-27, non-small cell lung cancer A549, human chronic myeloid leukemia cells doxorubicin resistant strains K562/A02, human fibrosarcoma HT-1080, human chronic myeloid leukemia cell K562.
Experimental materials: PAC-1 needle crystal (prepared according to the method described in Quinn P. Peterson et al., J. Med. Chem. 2009, 52, 5721-5731), MTT solution (Amresco specification: 1 g, batch number: 2035B358), DMSO (Analytical Pure, Beijing Chemical Factory), 96-well plates (Corning), CCK-8 (Japanese Tongren Chemical Research Institute, specification: 500test, batch number: DJ706), fetal bovine serum was the product from the United States GIBCO, batch number: 608759, RPMI-1640 is the product of Hyclone, batch number: NWK0492, 0.25% Trypsin-EDTA is the product from the United States GIBCO company, batch number: 10T774768, DMSO: USA Sigma Corporation.
The cells in logarithmic growth phase were collected. The cells was digested and the cell density was adjusted into 1-5×10^5 cells/mL, 100 μL per well in 96-well culture plate. The plated was cultured in a incubator with 37 ? , 5% CO2 saturated humidity. After adherent, different concentrations of PAC-1 and ZYS-1 were added for dosing groups. 6 dosage groups were set, with at least three parallel wells set in each group. […]

HGC-27 cells = assay: Two-dimensional migration (cell scratch assay); format: cell-based; settings: n = 3
Procedure: HGC-27 cells in logarithmic growth phase were collected. The cell with density of 5×10^5 cells/mL was spread onto 24-well plates (0.5 mL per well). RMPI-1640 culture medium with 10% fetal bovine serum was added and cultured for 24 h to form monolayer cells. The monolayer cells were scratched in a line by 20 μL pipette gun tip, which was washed with PBS three times. Then, drug-containing media with 2% fetal bovine serum s were added, which concentrations were 2 μM, 4 μM, respectively. The media were cultured in the incubator with 37 ? , 5% CO2 saturated humidity. Sampled at 0, 4, 8, 12 h and took the pictures. The area where cells were migrated from scratch edge to scratch within the same field was counted by software.

[2] = Solubility comparison of ZYS-1 and PAC-1 needle crystal (HPLC); format: physicochemical; settings: Water, room temperature
[3] = Homo sapiens, HT-1080, 24 h, read-out: Inhibition Rate

C=CCc1cccc(/C=N/NC(=O)CN2CCN(Cc3ccccc3)CC2)c1O [ZYS-1, 1-Piperazineacetic acid, 4-(phenylmethyl)-2-[[2-hydroxy-3-(2-propen-1-yl)phenyl]methylene]]
NF-κB protein expression (integral optical density value) (NF-κB; 4 μM): 43.83 ± 1.06
NF-κB protein expression (integral optical density value) (NF-κB; 8 μM): 40.94 ± 0.46
IC50 (HUVECs): 2540 nM
Cell number (transmembrane cells) (HT-1080 cells; 2 μM): 24.67 ± 8.46
Cell number (transmembrane cells) (HT-1080 cells; 4 μM): 16.58 ± 4.18
Cell number (transmembrane cells) (HT-1080 cells; 8 μM): 16.08 ± 5.07
inhibition at 2 µM (HT-1080 cells; [3]): 33.5%
inhibition at 4 µM (HT-1080 cells; [3]): 55.3%
inhibition at 8 µM (HT-1080 cells; [3]): 56.6%
VEGF protein expression (integral optical density value) (VEGF; 4 μM): 31.17 ± 0.24
VEGF protein expression (integral optical density value) (VEGF; 8 μM): 30.51 ± 0.32
antitumor efficacy (cell proliferation) compared with PAC-1 needle crystal [1]: stronger antitumor efficacy than PAC-1 needle crystal
area of cell migration into scratch (HGC-27 cells; 2 μM, 4 h): 0.12 ± 0.01 mm^2
area of cell migration into scratch (HGC-27 cells; 2 μM, 8 h): 0.16 ± 0.02 mm^2
area of cell migration into scratch (HGC-27 cells; 2 μM, 12 h): 0.20 ± 0.02 mm^2
area of cell migration into scratch (HGC-27 cells; 4 μM, 4 h): 0.04 ± 0.01* mm^2
area of cell migration into scratch (HGC-27 cells; 4 μM, 8 h): 0.07 ± 0.01* mm^2
area of cell migration into scratch (HGC-27 cells; 4 μM, 12 h): 0.08 ± 0.02** mm^2
Solubility [2]: 5.6 µg/mL (≈ 14.3 µM)
